# Assay results as given in patent US20250221976A1, “COMPOUNDS, COMPOSITIONS AND METHODS OF TREATING NEUROPATHIC PAIN” (THE UNIVERSITY OF HONG KONG, priority 2024, published 2025).
# Assays:
# [1] = tested on: spared nerve injury (SNI) rat model; assay: Von Frey test, mechanical allodynia in spared nerve injury (SNI) rats; format: in vivo; details: 50 μg/kg/day intrathecally, from 14 days post injury
# From the text: (§1) The SNI surgery was constructed as previously described^16, 17. In brief, after animals were anesthetized by isoflurane (1.5-2.5%), a half centimeter incision was made in the middle of the outer. Muscles from the upper layer were bluntly dissected to expose the sciatic nerve and its branches to the left hind leg's common peroneal, tibial, and peroneal nerves. Then, the front two nerves were clipped, and the […]. In the sham-operated group, the sciatic nerve was only exposed, and no clipping or injury was done. After suturing the skin, animals were transferred to an observation box for recovery.
# (§2) Intrathecal administration of vehicle or drugs was conducted by direct lumbar puncture in the L5-L6 intervertebral space with a 30-gauge needle following the method of Mestre^18. This procedure was performed under isoflurane anesthesia to permit rapid recovery of the animals. The quality of each injection was ensured by the observation of an injection-induced tail-flick.
# Assessment of mechanical allodynia was using the Von Frey test as previously described^17. The animals were placed in plastic cages with metal mesh on the bottom and allowed to acclimatize for at least half an hour before each test. Each Von Frey wire was held perpendicular to the contact surface of the paw until it bent. […]
# [2] = tested on: spared nerve injury (SNI) rat model; assay: Acetone test, cold allodynia in SNI rats; format: in vivo; details: 50 μg/kg/day intrathecally, from 14 days post injury
# From the text: as §1, §2
# Assessment of cold allodynia was using acetone test^20. Animals were placed in the assessment cage described above for habituation. Acetone was collected by pipette for each trial. […] As the acetone fast spread across the plantar skin and evaporated, noxious withdrawal responses of the hind paw (fluttering, licking, or hanging) against the cold stimuli was recorded. […]
# [3] = tested on: spared nerve injury (SNI) rat model; assay: Pin test, hyperalgesia in SNI rats; format: in vivo; details: 50 μg/kg/day intrathecally, from 14 days post injury
# From the text: as §1, §2
# Hyperalgesia was evaluated by pin test described previously^20. […] Normal response (brief flinch) or noxious-like response (sustained elevation of the paw with licking, shaking, or grooming) was recorded in 10 repeated trials with a minimum of 10 seconds' gap. Data was expressed as percentage of noxious-like response out of 10 trials.
# NRF2 = assay: Immunoblot of NRF2 expression in L4-L6 DRG of SNI rats; format: in vivo, rat; details: 50 μg/kg, DRG collected 3 h after administration, versus vehicle
# From the text: as §1, §2
# For western blotting, L4-6 DRGs were extracted from the ipsilateral surgery of SNI rats and stored in liquid nitrogen to be set aside. DRGs were then sheared in pre-cooled potent RIPA lysate (containing protease and phosphatase inhibitors) and their whole cell lysates were obtained by ultrasonic crushing on ice. […] Immunoreactive bands were detected by chemiluminescence.
# ROS level in DRG neurons = ROS level in DRG neurons by DCFH-DA flow cytometry; format: in vivo, rat; details: SNI rats, 50 μg/kg i.th, 3 h after administration, versus vehicle
# From the text: as §1
# Intrathecal administration of vehicle or drugs was conducted by direct lumbar puncture in the L5-L6 intervertebral space with a 30-gauge needle following the method of Mestre^18. […]
# ROS level of DRG neurons were labeled by ROS Assay Kit (Beyotime Co., Ltd., China) and detected by flow cytometry according to the manufacturer's instructions. […] However, after entering the cell, DCFH-DA is hydrolyzed by cellular esterase to generate DCFH (2′,7′-dichlorodihydrofluorescein), which is non-permeable to the cell membrane, and can be oxidized by ROS into fluorescent DCF (2′,7′-dichlorofluorescein) that can be detected by flow cytometry. The fluorescence intensity represents the intracellular ROS levels.
# [4] = tested on: voltage-gated sodium (NaV) channels; assay: Whole-cell voltage clamp of NaV currents in small diameter DRG neurons; format: cell-based, rat; details: primary cultured small diameter (<30 μm) DRG neurons, 20 μM overnight
# Description: DRG neurons were obtained from rodents by acute isolation as previously described^21, 22. After animals were euthanized, the dorsal skin was removed to perform laminectomy to expose DRG, L4-L6 DRGs were rapidly collected from the intervertebral foramen. The collected DRGs were digested in 3 mL bicarbonate-free, serum-free, sterile DMEM (cat. no. 11965; Thermo Fisher Scientific) containing a mixture of enzymes (neutral protease, 3.125 mg/mL (cat. no. LS02104; Worthington) and collagenase Type I 5 mg/mL (cat. no. LS004194; Worthington)), incubated in a shaker at 37° C. […]
# (§3) Whole-cell voltage clamp recording was performed as previously described. […] Data were obtained by Patchmaster (HEKA) and analyzed with Fitmaster (HEKA). […]
# (§4) NaV currents were measured from rodent DRG small diameter (<30 μm) neurons. […] This process occurs between 0 and 10 mV and can be analyzed as a function of voltage, as inferred from the peak current density (normalized to the cell capacitance (picofarad, pF)); (ii) Inactivation protocol: starting from a clamp potential of −60 mV, a hyperpolarization/depolarization pulse of 1 second in the range of −120 to 20 mV, in steps of +10 mV for 1 second. […] The Boltzmann relevant factors, similar to half-maximal activation (V50) and slope, for the single fits to the data, are calculated, summarized, and compared among groups. […]
# NaV1.7 = biological target: T1, NaV1.7 (Homo sapiens, UniProt Q15858); assay: Whole-cell voltage clamp of NaV1.7 currents in transfected HEK293 cells; format: cell-based
# T1 construct: conflicts with the methods; host or cells: HEK293
# Description: HEK293 cells were purchased from Shanghai Institute of Biological Sciences, Chinese Academy of Sciences. HEK293 cells were cultured in medium (DMEM containing 10% fetal bovine serum and 1% penicillin/streptomycin) in an atmosphere of 5% CO2 at 37° C.
# The NaV1.7 sequence was synthesized by GenScript (Nanjing, Jiangsu Province, China) and inserted into the pcDNA3.1 (+)-C-DYK plasmid between the BamH1 and EcoRI restriction sites. The empty plasmid of pcDNA3.1 purchased from Shenzhen Yanming Biotechnology Company was used as a mock transfection control. […]
# as §3, §4
# T1 sequence (Q15858 whole entry): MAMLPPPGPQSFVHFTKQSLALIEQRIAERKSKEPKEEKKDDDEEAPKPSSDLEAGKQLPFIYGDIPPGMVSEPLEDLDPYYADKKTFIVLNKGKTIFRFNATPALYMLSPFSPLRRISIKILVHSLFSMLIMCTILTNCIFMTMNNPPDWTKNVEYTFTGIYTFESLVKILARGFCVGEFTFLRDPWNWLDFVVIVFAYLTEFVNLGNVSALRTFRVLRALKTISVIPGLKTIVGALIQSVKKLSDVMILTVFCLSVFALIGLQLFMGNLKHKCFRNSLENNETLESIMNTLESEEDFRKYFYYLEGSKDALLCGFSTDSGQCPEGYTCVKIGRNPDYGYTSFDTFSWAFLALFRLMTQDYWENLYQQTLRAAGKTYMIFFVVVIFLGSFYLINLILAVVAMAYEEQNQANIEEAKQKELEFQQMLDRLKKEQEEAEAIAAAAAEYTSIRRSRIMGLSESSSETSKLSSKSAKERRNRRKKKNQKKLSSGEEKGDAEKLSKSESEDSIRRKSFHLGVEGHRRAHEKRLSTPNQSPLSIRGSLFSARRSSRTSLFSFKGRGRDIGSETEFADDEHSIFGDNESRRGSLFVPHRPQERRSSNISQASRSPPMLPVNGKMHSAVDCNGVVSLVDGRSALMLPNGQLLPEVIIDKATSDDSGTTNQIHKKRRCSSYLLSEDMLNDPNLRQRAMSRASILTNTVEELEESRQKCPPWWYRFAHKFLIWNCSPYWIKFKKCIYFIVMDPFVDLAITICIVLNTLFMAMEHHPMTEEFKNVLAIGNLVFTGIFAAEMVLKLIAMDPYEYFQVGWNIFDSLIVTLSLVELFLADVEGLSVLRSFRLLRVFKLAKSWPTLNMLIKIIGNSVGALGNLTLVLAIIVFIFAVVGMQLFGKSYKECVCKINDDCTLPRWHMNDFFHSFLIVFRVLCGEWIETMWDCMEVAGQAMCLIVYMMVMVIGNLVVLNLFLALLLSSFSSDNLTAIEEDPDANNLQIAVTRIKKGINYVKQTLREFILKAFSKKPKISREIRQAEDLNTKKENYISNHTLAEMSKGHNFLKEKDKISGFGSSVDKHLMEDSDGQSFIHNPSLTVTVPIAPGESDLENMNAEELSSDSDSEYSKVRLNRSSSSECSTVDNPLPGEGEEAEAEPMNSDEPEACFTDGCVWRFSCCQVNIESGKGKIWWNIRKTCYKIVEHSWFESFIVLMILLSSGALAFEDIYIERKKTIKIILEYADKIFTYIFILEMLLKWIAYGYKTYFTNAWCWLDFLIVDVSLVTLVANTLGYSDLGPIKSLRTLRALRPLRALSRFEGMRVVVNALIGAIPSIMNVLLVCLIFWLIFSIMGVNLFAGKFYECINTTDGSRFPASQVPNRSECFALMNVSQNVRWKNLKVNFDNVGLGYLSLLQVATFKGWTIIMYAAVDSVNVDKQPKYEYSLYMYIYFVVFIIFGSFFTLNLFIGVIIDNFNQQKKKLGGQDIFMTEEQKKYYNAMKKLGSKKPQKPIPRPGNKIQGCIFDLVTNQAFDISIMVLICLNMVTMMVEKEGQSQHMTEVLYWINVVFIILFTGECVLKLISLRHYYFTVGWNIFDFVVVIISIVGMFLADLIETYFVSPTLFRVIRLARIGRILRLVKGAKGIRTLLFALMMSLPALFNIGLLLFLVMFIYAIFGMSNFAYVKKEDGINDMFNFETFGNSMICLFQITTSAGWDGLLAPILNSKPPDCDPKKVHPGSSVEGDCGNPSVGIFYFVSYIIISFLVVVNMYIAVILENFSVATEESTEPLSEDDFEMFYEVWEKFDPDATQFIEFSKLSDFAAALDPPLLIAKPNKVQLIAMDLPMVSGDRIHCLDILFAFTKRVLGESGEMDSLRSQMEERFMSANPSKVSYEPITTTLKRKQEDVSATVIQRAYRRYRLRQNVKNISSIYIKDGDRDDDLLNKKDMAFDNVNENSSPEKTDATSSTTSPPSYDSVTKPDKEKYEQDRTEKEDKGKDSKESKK
compound,measurement,setting,value
"Cc1ccc(-c2noc(-c3ccc(F)c(F)c3)n2)cn1 [Compound 1, 5-(3,4-difluorophenyl)-3-(6-methylpyridin-3-yl)-1,2,4-oxadiazole]",max inhibiting rate in mechanical allodynia,[1],about 70.0%
same,max inhibiting rate in cold allodynia,[2],~35.0%
same,max inhibiting rate in hyperalgesia,[3],~37.5%
same,expression level of NRF2 in L4-L6 DRG,NRF2,increased the expression level of NRF2
same,ROS level in DRG neurons (DCF staining),ROS level in DRG neurons,decreased
same,inhibition of NaV currents,[4],significant inhibition of NaV currents
same,inhibition of NaV1.7 current density under excessive oxidative stress,"NaV1.7; HEK293 cells transfected with NaV1.7, pre-treated with H2O2 (500 μM, 20 min), then 20 μM overnight",Same inhibiting properties
same,inhibition of NaV1.7 current density,"NaV1.7; HEK293 cells transfected with NaV1.7 plasmid, 20 μM overnight",significantly inhibited NaV1.7 current density
